Source: patent US20120040951A1, “HETEROARYL COMPOUNDS USEFUL AS RAF KINASE INHIBITORS” (priority 2008, published 2012)

How the values were obtained:
V599E Raf = V599E Raf (Homo sapiens, UniProt P15056, V600E); assay: Biochemical FRET assay, mutant Raf (phosphorylation of MEK); conditions: 0.125 nM V599E Raf, 100 nM biotin-MEK, 25 μM ATP, read-out: Raf (mut) inhibition
Experimental: (1) Biochemical FRET Assay […]
Inhibitors were diluted 4-fold in 100% DMSO and added to a final concentration of 10 μM to 40 μM to a solution containing 100 nM biotin-MEK, 0.125 nM V599E Raf in 50 mM HEPES, pH 7.4, 60 mM NaCl, 3 mM MgCl2, 2 mM DTT, 0.25 mM MnCl2, 0.01% BSA, and 0.01% Tween-20 and incubated for 20 minutes at room temperature. The kinase reaction was started by the addition of 25 μM ATP to a final volume of 45 μl and allowed to progress for 60 minutes. The reaction was stopped with 15 mM EDTA and 20 nM Streptavidin-APC, 2.5 nM Polyclonal anti p-MEK1/2 (Ser217/221), 2.5 nM Eu-labeled anti-rabbit IgG were added in Lance detection buffer and 5% Superblock in PBS for a final volume of 100 μl. The detection reaction was incubated for 90 minutes at room temperature and then read on an Analyst plate reader using standard TR-FRET (time resolved fluorescence resonance energy transfer) settings for Eu and APC.
Compounds having an activity designated as “A” provided an IC50≦100 nM; compounds having an activity designated as “B” provided an IC50 of 100-1000 nM; and compounds having an activity designated as “C” provided an IC50 of 1000-10,000 nM.

[1] = test system: phospho-ERK in melanoma derived WM-266-4 cells; assay: Mechanistic cellular assay for Raf kinase activity (phospho-ERK, Bio-Plex); type: cell-based; conditions: Homo sapiens, treated 1-2 hr at 37° C., serum free medium, read-out: pERK EC50
Procedure, shortened: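 WM-266-4 melanoma cells (wild-type/V600D BRaf) grown overnight in 10% FBS RPMI, then treated 1–2 h at 37 °C in serum-free RPMI with eight 3-fold dilutions of compound (from 5 mM DMSO stock, 1000× dilution). Lysate phospho-ERK1,2 quantified by Bio-Plex bead immunoassay.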

V599E Raf, sequence (P15056 whole entry V600E): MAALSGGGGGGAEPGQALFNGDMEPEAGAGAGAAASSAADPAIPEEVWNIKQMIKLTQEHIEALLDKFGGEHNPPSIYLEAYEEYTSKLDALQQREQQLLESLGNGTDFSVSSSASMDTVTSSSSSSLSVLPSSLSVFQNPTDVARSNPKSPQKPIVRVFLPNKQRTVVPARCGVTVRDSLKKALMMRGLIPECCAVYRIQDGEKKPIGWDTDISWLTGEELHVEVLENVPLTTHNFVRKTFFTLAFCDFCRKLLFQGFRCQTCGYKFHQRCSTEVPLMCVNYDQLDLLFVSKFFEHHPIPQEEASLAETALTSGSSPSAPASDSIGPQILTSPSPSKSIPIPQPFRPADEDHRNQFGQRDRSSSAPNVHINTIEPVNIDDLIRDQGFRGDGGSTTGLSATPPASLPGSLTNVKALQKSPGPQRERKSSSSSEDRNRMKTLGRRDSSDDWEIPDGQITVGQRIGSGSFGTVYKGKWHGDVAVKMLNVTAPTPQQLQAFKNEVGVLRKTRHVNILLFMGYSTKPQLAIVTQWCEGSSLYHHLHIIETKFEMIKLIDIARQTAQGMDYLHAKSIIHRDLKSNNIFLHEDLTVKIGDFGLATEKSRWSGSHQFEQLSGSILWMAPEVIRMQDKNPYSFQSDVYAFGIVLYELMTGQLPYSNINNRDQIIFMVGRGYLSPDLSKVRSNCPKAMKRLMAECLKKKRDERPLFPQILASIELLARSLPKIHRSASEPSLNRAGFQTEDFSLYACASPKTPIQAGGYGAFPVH

Row | IC50 (V599E Raf) [nM] | EC50 [1] [nM] | SMILES
1 | ≤ 100 | ≤ 100 | C[C@@H](NC(=O)c1cc2c(cn1)ncn2C)c1cnc(Nc2ccc(C(F)(F)F)cc2)s1 [Example 4]
2 | ≤ 100 | ≤ 100 | CC(NC(=O)c1cc2c(cn1)ncn2C1CCC1)c1cnc(Nc2ccc(C(F)(F)F)cc2)cn1 (stereo not shown) [Example 175]
3 | ≤ 100 | 1000 to 10000 | CC(NC(=O)c1ccc2ncn(C)c2c1)c1cnc(Nc2ccc(C(F)(F)F)cc2)s1 (stereo not shown) [Example 76]
4 | ≤ 100 | ≤ 100 | C[C@@H](NC(=O)c1cc2c(cn1)ncn2C1CN(S(C)(=O)=O)C1)c1cnc(Nc2ccc(C(F)(F)F)cc2)s1 [Example 346]
5 | ≤ 100 | 100 to 1000 | CC(NC(=O)c1cn2ccnc2cn1)c1cnc(Nc2ccc(C(F)(F)F)cc2)s1 (stereo not shown) [Example 296]
6 | ≤ 100 | ≤ 100 | C[C@@H](NC(=O)c1cc2c(cn1)ncn2C1CCC1)c1cnc(Nc2ccc(C(F)(F)F)cc2)s1 [Example 176]
7 | ≤ 100 | 100 to 1000 | CCn1cc2cc(C(=O)NC(C)c3cnc(Nc4ccc(C(F)(F)F)cc4)s3)ncc2n1 (stereo not shown) [Example 207]
8 | ≤ 100 | ≤ 100 | CC(NC(=O)c1cc2c(cn1)nc(N)n2C)c1cnc(Nc2ccc(C(F)(F)F)cc2)s1 (stereo not shown) [Example 199]
9 | 100 to 1000 | 1000 to 10000 | C[C@@H](NC(=O)c1cc2c(cn1)ncn2C)c1cnc(Nc2ccc(C(F)(F)F)nc2)s1 (single isomer, unassigned) [Example 266]
10 | ≤ 100 | 100 to 1000 | C[C@@H](NC(=O)c1cc2c(cn1)ncn2[C@H]1CCNC1)c1cnc(Nc2ccc(C(F)(F)F)cc2)s1 [Example 31]
11 | ≤ 100 | 1000 to 10000 | CC(NC(=O)c1ccc2ncccc2c1)c1cnc(Nc2ccc(C(F)(F)F)cc2)s1 (stereo not shown) [Example 72]
12 | ≤ 100 | ≤ 100 | CCN1CC[C@@H](n2cnc3cnc(C(=O)N[C@H](C)c4cnc(Nc5ccc(C(F)(F)F)cc5)s4)cc32)C1 [Example 28]
13 | 100 to 1000 | 1000 to 10000 | CC(NC(=O)c1cnc2nccn2c1)c1cnc(Nc2ccc(C(F)(F)F)cc2)s1 (stereo not shown) [Example 309]
14 | ≤ 100 | 100 to 1000 | CC(NC(=O)c1cc2c(cn1)ncn2C1CN(C(C)C)C1)c1cnc(Nc2ccc(C(F)(F)F)cc2)cn1 (stereo not shown) [Example 181]
15 | ≤ 100 | 1000 to 10000 | CC(NC(=O)c1ccc2ncsc2c1)c1cnc(Nc2ccc(C(F)(F)F)cc2)s1 (stereo not shown) [Example 74]
16 | ≤ 100 | 100 to 1000 | C[C@@H](NC(=O)c1cc2c(cn1)ncn2[C@@H]1CCNC1)c1cnc(Nc2ccc(C(F)(F)F)cc2)s1 [Example 26]

More lines, now with the values behind:

Row | SMILES | IC50 (V599E Raf) [nM] | EC50 [1] [nM]
17 | Cc1ccc(NC(=O)c2cc([C@H](C)NC(=O)c3cnn4ccccc34)on2)cc1C(F)(F)F [Example 227] | ≤ 100 | 100 to 1000
18 | C[C@@H](NC(=O)c1cc2c(cn1)ncn2C)c1ncc(C(=O)Nc2cc(C(F)(F)F)c(Cl)cn2)s1 [Example 42] | ≤ 100 | ≤ 100
19 | C[C@@H](NC(=O)c1nc(NC(=O)OC(C)(C)C)cn1C)c1ncc(C(=O)Nc2cc(C(F)(F)F)c(Cl)cn2)s1 [Example 138] | 100 to 1000 | 1000 to 10000
20 | C[C@@H](NC(=O)c1cccc(N)n1)c1ncc(C(=O)Nc2cc(C(F)(F)F)c(Cl)cn2)s1 [Example 92] | ≤ 100 | 1000 to 10000
21 | O=C(NCc1cnc(Nc2ccc(C(F)(F)F)cc2)s1)c1ccc2ncccc2c1 [Example 189] | ≤ 100 | 1000 to 10000
22 | CC(NC(=O)c1cnn2ccccc12)c1ncc(C(=O)Nc2ccc(Cl)c(C(F)(F)F)c2)s1 (stereo not shown) [Example 222] | 100 to 1000 | ≤ 100
23 | Cc1scnc1C(=O)N[C@H](C)c1ncc(C(=O)Nc2cc(C(F)(F)F)c(Cl)cn2)s1 [Example 96] | ≤ 100 | 1000 to 10000
24 | CC(NC(=O)c1cc2c(cn1)ncn2C1CCC1)c1cnc(Nc2cnc(C(C)(C)C)nc2)s1 (stereo not shown) [Example 286] | ≤ 100 | ≤ 100
25 | Cc1nc2cc(C(=O)N[C@H](C)c3ncc(C(=O)Nc4cc(C(F)(F)F)c(Cl)cn4)s3)ccc2[nH]1 [Example 49] | ≤ 100 | 100 to 1000
26 | C[C@@H](NC(=O)c1cnn2ccccc12)c1cc(C(=O)Nc2nc3ccccc3[nH]2)on1 [Example 211] | ≤ 100 | 1000 to 10000
27 | C[C@@H](NC(=O)c1cnc(CN2CCOCC2)n1C)c1ncc(C(=O)Nc2cc(C(F)(F)F)c(Cl)cn2)s1 [Example 156] | ≤ 100 | 1000 to 10000
28 | CC(NC(=O)c1ccnc(N2CCOCC2)c1)c1ncc(C(=O)Nc2cc(C(F)(F)F)c(Cl)cn2)s1 (stereo not shown) [Example 89] | 100 to 1000 | 100 to 1000
29 | CC(C)n1cc(C(=O)N[C@H](C)c2ncc(C(=O)Nc3cc(C(F)(F)F)c(Cl)cn3)s2)cn1 [Example 134] | 100 to 1000 | 100 to 1000
30 | Cc1nn(C)cc1C(=O)N[C@H](C)c1ncc(C(=O)Nc2cc(C(F)(F)F)c(Cl)cn2)s1 [Example 123] | 100 to 1000 | 1000 to 10000
31 | C[C@@H](NC(=O)c1ccc2[nH]c(CO)nc2c1)c1ncc(C(=O)Nc2cc(C(F)(F)F)c(Cl)cn2)s1 [Example 55] | ≤ 100 | 1000 to 10000
32 | C[C@@H](NC(=O)c1cnn2ccccc12)c1cc(C(=O)Nc2ccc(Cl)c(C(F)(F)F)c2)on1 [Example 220] | ≤ 100 | 100 to 1000
33 | C[C@@H](NC(=O)c1csc(N)n1)c1ncc(C(=O)Nc2cc(C(F)(F)F)c(Cl)cn2)s1 [Example 98] | ≤ 100 | 1000 to 10000
34 | Cc1cn(-c2cccc(C(=O)N[C@H](C)c3ncc(C(=O)Nc4cc(C(F)(F)F)c(Cl)cn4)s3)n2)cn1 [Example 334] | 100 to 1000 | 1000 to 10000
35 | C[C@@H](NC(=O)c1cscn1)c1ncc(C(=O)Nc2cc(C(F)(F)F)c(Cl)cn2)s1 [Example 95] | ≤ 100 | 1000 to 10000
36 | CC(NC(=O)c1cc2c(cn1)ncn2C1CCC1)c1cnc(Nc2ccc(Cl)c(C(F)(F)F)c2)cn1 (stereo not shown) [Example 234] | ≤ 100 | 100 to 1000
37 | C[C@@H](NC(=O)c1cnn2ccccc12)c1cc(C(=O)Nc2ccc(Br)c(C(F)(F)F)c2)on1 [Example 209] | 100 to 1000 | ≤ 100
38 | C[C@@H](NC(=O)c1cnn(-c2ccccc2)c1N)c1ncc(C(=O)Nc2cc(C(F)(F)F)c(Cl)cn2)s1 [Example 121] | 100 to 1000 | 100 to 1000
39 | CC(NC(=O)c1ccc2nc(N)sc2c1)c1cnc(Nc2ccc(C(F)(F)F)cc2)s1 (stereo not shown) [Example 75] | ≤ 100 | 100 to 1000
40 | C[C@@H](NC(=O)c1cn[nH]c1-c1ccccc1)c1ncc(C(=O)Nc2cc(C(F)(F)F)c(Cl)cn2)s1 [Example 107] | ≤ 100 | 100 to 1000
41 | C[C@@H](NC(=O)c1cnc(C#N)n1C)c1ncc(C(=O)Nc2cc(C(F)(F)F)c(Cl)cn2)s1 [Example 150] | ≤ 100 | 1000 to 10000
42 | CNCc1c(C(=O)N[C@H](C)c2ncc(C(=O)Nc3cc(C(F)(F)F)c(Cl)cn3)s2)cnn1C [Example 129] | 1000 to 10000 | 1000 to 10000
43 | C[C@@H](NC(=O)c1cnc2n1CCCN2C)c1ncc(C(=O)Nc2cc(C(F)(F)F)c(Cl)cn2)s1 [Example 167] | ≤ 100 | 100 to 1000
44 | CCn1ncc(C(=O)N[C@H](C)c2ncc(C(=O)Nc3cc(C(F)(F)F)c(Cl)cn3)s2)c1C [Example 126] | ≤ 100 | ≤ 100
